Assay type in all cases: functional, cell-based
The target of one experiment is T1, Bile acid receptor (Homo sapiens, UniProt Q96RI1).
T1 sequence (Q96RI1 whole entry): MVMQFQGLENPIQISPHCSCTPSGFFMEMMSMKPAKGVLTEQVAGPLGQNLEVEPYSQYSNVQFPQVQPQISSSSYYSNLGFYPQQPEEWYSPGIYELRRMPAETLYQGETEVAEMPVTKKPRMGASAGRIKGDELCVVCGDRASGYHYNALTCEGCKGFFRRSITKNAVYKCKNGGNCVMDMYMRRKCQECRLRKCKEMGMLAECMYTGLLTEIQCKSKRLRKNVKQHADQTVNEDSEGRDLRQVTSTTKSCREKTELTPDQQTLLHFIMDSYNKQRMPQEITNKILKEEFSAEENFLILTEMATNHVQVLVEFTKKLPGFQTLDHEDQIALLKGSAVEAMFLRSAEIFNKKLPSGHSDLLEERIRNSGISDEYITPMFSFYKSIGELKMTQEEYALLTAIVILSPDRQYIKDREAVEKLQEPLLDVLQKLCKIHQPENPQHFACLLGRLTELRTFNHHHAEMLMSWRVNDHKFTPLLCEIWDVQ
The experiment is described as follows: Agonist activity at human […] FXR LBD expressed in HEK293 cells coexpressing GAL4-DNA bindig domain and pFRluc by mammalian one-hybrid assay. As to conditions: read-out: EC50.

Experiment [1] deals with T2, Retinoic acid receptor alpha (Homo sapiens, UniProt P10276).
T2 sequence (P10276 whole entry): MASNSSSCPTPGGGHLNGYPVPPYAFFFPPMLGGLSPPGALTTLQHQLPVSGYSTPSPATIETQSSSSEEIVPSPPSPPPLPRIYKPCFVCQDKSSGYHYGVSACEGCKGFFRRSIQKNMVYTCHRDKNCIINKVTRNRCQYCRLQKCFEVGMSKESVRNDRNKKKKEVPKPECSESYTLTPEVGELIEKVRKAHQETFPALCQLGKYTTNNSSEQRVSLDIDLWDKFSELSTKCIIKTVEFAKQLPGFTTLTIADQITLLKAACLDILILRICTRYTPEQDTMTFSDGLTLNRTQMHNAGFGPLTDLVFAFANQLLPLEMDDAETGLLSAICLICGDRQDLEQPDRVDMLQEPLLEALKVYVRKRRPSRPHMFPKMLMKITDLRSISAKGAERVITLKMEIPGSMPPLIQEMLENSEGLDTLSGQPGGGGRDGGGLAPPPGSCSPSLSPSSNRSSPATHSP
The experiment in a line: Agonist activity at RARalpha-LBD expressed in HEK293 cells assessed as Gal4-DBD interaction by cellular mammalian one hybrid assay.

The target in experiment [2] is T3, Mineralocorticoid receptor (Homo sapiens) (UniProt P08235).
T3 sequence (whole entry): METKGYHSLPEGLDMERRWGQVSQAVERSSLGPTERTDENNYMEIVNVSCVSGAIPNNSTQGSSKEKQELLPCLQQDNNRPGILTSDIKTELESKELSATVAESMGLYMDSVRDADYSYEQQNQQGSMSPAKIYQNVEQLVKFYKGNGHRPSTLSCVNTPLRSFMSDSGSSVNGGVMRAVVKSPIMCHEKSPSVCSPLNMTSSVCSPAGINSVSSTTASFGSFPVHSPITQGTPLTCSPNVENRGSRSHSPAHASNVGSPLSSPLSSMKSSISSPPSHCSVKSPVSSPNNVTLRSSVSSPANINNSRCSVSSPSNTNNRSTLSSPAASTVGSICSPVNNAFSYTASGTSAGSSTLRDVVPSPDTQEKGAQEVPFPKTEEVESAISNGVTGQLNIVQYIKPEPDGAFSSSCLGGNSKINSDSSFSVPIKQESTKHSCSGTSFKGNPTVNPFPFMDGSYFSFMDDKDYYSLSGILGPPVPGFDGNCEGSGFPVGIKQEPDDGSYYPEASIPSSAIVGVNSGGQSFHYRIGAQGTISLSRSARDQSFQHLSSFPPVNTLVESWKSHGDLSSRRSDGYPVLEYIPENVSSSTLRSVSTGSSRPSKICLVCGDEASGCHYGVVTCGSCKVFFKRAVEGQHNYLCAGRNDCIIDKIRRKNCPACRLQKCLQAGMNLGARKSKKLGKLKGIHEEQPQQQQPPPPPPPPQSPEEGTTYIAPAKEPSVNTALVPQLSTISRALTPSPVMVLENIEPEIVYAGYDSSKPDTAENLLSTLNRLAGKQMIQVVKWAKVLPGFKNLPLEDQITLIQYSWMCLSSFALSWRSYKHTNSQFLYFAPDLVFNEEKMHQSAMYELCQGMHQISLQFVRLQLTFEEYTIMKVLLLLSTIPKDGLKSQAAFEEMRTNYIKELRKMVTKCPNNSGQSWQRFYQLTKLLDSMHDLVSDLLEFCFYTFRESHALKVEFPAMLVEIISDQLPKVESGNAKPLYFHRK
The experiment is described as follows: Agonist activity at mineralocorticoid receptor-LBD expressed in HEK293 cells assessed as Gal4-DBD interaction by cellular mammalian one hybrid assay relative to mineralocorticoid.

Experiment [3] has as its target T4, Retinoic acid receptor gamma (Homo sapiens) (UniProt P13631).
T4 sequence (whole entry): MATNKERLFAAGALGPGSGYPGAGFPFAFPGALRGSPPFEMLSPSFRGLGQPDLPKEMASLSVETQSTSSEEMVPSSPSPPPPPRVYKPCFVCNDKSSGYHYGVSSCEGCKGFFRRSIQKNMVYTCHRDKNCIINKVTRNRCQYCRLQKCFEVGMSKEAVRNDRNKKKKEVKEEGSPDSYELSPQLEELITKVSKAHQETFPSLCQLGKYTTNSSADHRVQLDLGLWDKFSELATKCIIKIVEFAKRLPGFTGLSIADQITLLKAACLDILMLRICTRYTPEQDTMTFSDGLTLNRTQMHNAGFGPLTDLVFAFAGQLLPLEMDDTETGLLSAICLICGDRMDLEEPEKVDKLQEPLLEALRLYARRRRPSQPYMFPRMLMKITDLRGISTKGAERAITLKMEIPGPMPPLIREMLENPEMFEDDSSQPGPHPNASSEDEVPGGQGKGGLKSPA
The experiment is described as follows: Agonist activity at RARgamma-LBD expressed in HEK293 cells assessed as Gal4-DBD interaction by cellular mammalian one hybrid assay relative to relative to retinoic acid.

Bounds are passed on as bounds.

The term EC50 denotes the concentration that produces a half-maximal response. As to `CC(C)c1onc(-c2c(Cl)cccc2Cl)c1COc1ccc(N(C)Cc2ccc(C(=O)O)cc2)c(C(F)(F)F)n1`, the EC50 at Bile acid receptor was 90 nM; in experiment [1] it was more than 10000 nM. Further, the Efficacy in experiment [2] and in experiment [3] was 0% each time.
On to `CN(Cc1cccc(C(=O)O)c1)c1ccc(OCc2c(-c3c(Cl)cccc3Cl)noc2C2CC2)nc1C(F)(F)F`, for which the EC50 at Bile acid receptor is 9 nM; in experiment [1], more than 10000 nM. In addition, the Efficacy in experiment [2] and in experiment [3] was 0% throughout.
With `CN(Cc1ccc(C(=O)O)cc1)c1ccc(OCc2c(-c3c(Cl)cccc3Cl)noc2C2CC2)nc1C(F)(F)F`, the EC50 at Bile acid receptor is 30 nM; in experiment [1] it was more than 10000 nM. For the same compound, the Efficacy in experiment [2] and in experiment [3] was 0% in each case.
